Two molecules from US20160120186A1, “ENHANCEMENT AND CONTROL OF SEED GERMINATION WITH COMPOSITIONS COMPRISING A TRANSITION METAL CATALYST AND AN OXIDANT” (UNIVERSITY OF SASKATCHEWAN, priority 2013, published 2016) can be followed below.

Assay [1] is described as follows: Delignification by per-acids (studies by the inventors).
Assay [2] can be described thus: Microbiocidal properties of per-acids (studies by the inventors).

Regarding `CC(=O)O[O-].[Na+]` [peracetate], in assay [1], the “delignification of plant wall material” value was “very efficient delignification”. For the same molecule, the microbiocidal properties entry in assay [2] was “very powerful microbiocidal properties”.

With `O=COO` [performate], the “delignification of plant wall material” value in assay [1] is “very efficient delignification”. Besides, the microbiocidal properties entry in assay [2] is on record as “very powerful microbiocidal properties”.
